Square brackets hold non-standard residues; d marks the D form. Peptide text beside a SMILES is read from it. * marks the point of attachment. X3 = COc1cc([C@@H]2c3cc4c(cc3[C@@H](Nc3ccc(NC(=O)CCN5C(=O)CC(*)C5=O)cc3)[C@H]3COC(=O)[C@H]23)OCO4)cc(O)c1O; Biotin = O=C1N[C@H]2[C@H](CS[C@H]2CCCCC(=O)*)N1; βAla = NCCC(=O)O
test system: HaCaT cells; experiment: Peptide internalisation assay (biotinylated peptides, alkaline phosphatase-streptavidin detection); type: cell-based, human; conditions: FIG. 2, one peptide concentration, same pattern regardless of concentration
Protocol: HaCaT cells (immortalised ‘normal’ human […] cell line) were seeded into 96-well plates at 50,000 cells per well in medium (DMEM) with 10% foetal calf serum and antibiotics. After an overnight incubation, peptides were prepared as dilution series in cell medium and were added to the cells. At the end of the incubation period (usually 10 and 60 min), the cells were rinsed three times with PBS and fixed for 20 min at −20° C. in EtOH/AcOH (95:5). After the fixation, the cells were made permeable by treatment for 10 min with PBS containing 3% Tween-20. Endogenous alkaline phosphatase activity was neutralised by incubation at 65° C. for 60 min. Cells were incubated for 30 min at room temperature with alkaline phosphatase-streptavidin (Pierce Chemical Co., Rockford, Ill., USA) in 0.1% BSA in PBS and washed extensively with PBS. Freshly prepared substrate solution (1 mg/mL p-nitrophenyl phosphate disodium (Pierce Chemical Co.) in 10 mM diethanolamine (pH 9.5) containing 0.5 mM MgCl, was added to each well and incubated until sufficient colour had developed (approximately 30 min.). The enzymatic reaction was stopped by adding 50 μL 2 M aq NaOH to each well. Alkaline phosphatase activity was measured spectrophotometrically at 405 nm.

Compound	degree of internalisation / membrane translocation relative to control peptide 1
Biotinyl-βAla-Arg-Met-Lys-Trp-Lys-Lys-NH2 (Biotin-[βAla]RMKWKK-NH2; SMILES CSCC[C@H](NC(=O)[C@H](CCCNC(=N)N)NC(=O)CCNC(=O)CCCC[C@@H]1SC[C@@H]2NC(=O)N[C@@H]21)C(=O)N[C@@H](CCCCN)C(=O)N[C@@H](Cc1c[nH]c2ccccc12)C(=O)N[C@@H](CCCCN)C(=O)N[C@@H](CCCCN)C(N)=O) [Peptide 20]	severe drop
Biotinyl-βAla-Ile-Trp-Phe-Gln-Asn-Arg-Arg-Met-Lys-Trp-Lys-Lys-NH2 (Biotin-[βAla]IWFQNRRMKWKK-NH2; SMILES CC[C@H](C)[C@H](NC(=O)CCNC(=O)CCCC[C@@H]1SC[C@@H]2NC(=O)N[C@@H]21)C(=O)N[C@@H](Cc1c[nH]c2ccccc12)C(=O)N[C@@H](Cc1ccccc1)C(=O)N[C@@H](CCC(N)=O)C(=O)N[C@@H](CC(N)=O)C(=O)N[C@@H](CCCNC(=N)N)C(=O)N[C@@H](CCCNC(=N)N)C(=O)N[C@@H](CCSC)C(=O)N[C@@H](CCCCN)C(=O)N[C@@H](Cc1c[nH]c2ccccc12)C(=O)N[C@@H](CCCCN)C(=O)N[C@@H](CCCCN)C(N)=O) [Peptide 14]	only about half of the original signal was left
Biotinyl-βAla-Trp-Phe-Gln-Asn-Arg-Arg-Met-Lys-Trp-Lys-Lys-NH2 (Biotin-[βAla]WFQNRRMKWKK-NH2; SMILES CSCC[C@H](NC(=O)[C@H](CCCNC(=N)N)NC(=O)[C@H](CCCNC(=N)N)NC(=O)[C@H](CC(N)=O)NC(=O)[C@H](CCC(N)=O)NC(=O)[C@H](Cc1ccccc1)NC(=O)[C@H](Cc1c[nH]c2ccccc12)NC(=O)CCNC(=O)CCCC[C@@H]1SC[C@@H]2NC(=O)N[C@@H]21)C(=O)N[C@@H](CCCCN)C(=O)N[C@@H](Cc1c[nH]c2ccccc12)C(=O)N[C@@H](CCCCN)C(=O)N[C@@H](CCCCN)C(N)=O) [Peptide 15]	only about half of the original signal was left

same assay, conditions: assay of section 1.3

Compound	internalised into cells / active in the cell internalisation assay (qualitative)
KKWKORR	internalised into cells
KRMKWKK	internalised into cells
NRRMKWKK	internalised into cells
QNRRMKWKK	internalised into cells
RKMKWKK	internalised into cells
RORKWKK	internalised into cells
RREKWKK	internalised into cells
RRMKKWK	internalised into cells
RRMKQKK	internalised into cells
RRMKWFK	internalised into cells
RRMKWKK	internalised into cells
RRMWKKK	internalised into cells
RROKKWK	internalised into cells
RROKWKK [O = norleucine]	internalised into cells
RROWKKK	internalised into cells
RRQKWKK	internalised into cells

test system: live cells; experiment: Visualisation of cell internalisation (biotin-avidin and direct fluorescein probe); type: cell-based; conditions: FIG. 4, visualisation in cells
Protocol: This assay permitted the study and measurement of cell internalisation without the possibility of observing artefacts emanating from the cell manipulations necessary with the biotinylated peptides. […] (squares when t=10 mins, diamonds when t=60 mins). […] Nuceolar accumulation may be due to non-specific binding of the positively charged peptide to DNA.

Compound	subcellular localisation after internalisation
Biotinyl-βAla-Arg-Gln-Ile-Lys-Ile-Trp-Phe-Gln-Asn-Arg-Arg-Met-Lys-Trp-Lys-Lys-NH2 (ARQIKIWFQNRRMKWKK; N-terminal biotin, beta-residue; C-terminal amide; MOD_RES (1) bAla) [Peptide 1]	localises predominantly to the cell nucleus and accumulates in the nucleoli, with lesser concentration in the cytosol

test system: purified recombinant human topoisomerase II; experiment: Topoisomerase II inhibition assay (cleavage and relaxation of plasmid DNA); type: biochemical; design: key: I denotes inhibition of relaxation of supercoiled plasmid by topoisomerase II; C denotes accumulation of topoisomerase II reaction intermediate; conditions: test compound at 1 mM, 100 μM, or 10 μM final concentration; cleavage and relaxation assays
Protocol: Topoisomerase II assay—Plasmid DNA (0.3 μg) was incubated at 37° C. with 4 units of purified recombinant human topoisomerase II in cleavage buffer (30 mM Tris.HCl, pH 7.6, 60 mM NaCl, 3 mM ATP, 15 mM mercaptoethanol, 8 mM MgCl2) with or without the addition of test compound (at 1 mM, 100 μM, or 10 μM final concentration). Reactions were stopped by the immediate addition of SDS (1% w/v final). Samples were treated with proteinase K (30 min at 37° C.) and extracted twice with an equal volume of 42:1 CHCl3/i-amyl alcohol. After adding loading dye samples were loaded to a 4×TAE, 1% agarose gel containing […] ethidium bromide and electrophoresed for 16-24 h. Topoisomerase II inhibition was judged by the production of linear plasmid DNA, representing trapped cleavage intermediate, and by the ratio of substrate (spercoiled DNA) to product (relaxed DNA). A relaxation assay was performed identically, except that the reaction buffer was optimised for the detection of catalysis rather than cleavage i.e. only 2 units of enzyme were used per sample. The reaction buffer was 50 mM Tris.HCl, pH 8, 120 mM KCl, 0.5 mM ATP, 0.5 mM dithiothreitol, 10 mM MgCl2. Topoisomerase II inhibition was judged by the ratio of substrate (supercoiled DNA) to product (relaxed DNA).

Compound	Activity observed (topoisomerase II)
COc1cc(C2c3cc4c(cc3C(Nc3ccc(N)cc3)C3COC(=O)C23)OCO4)cc(OC)c1O (centres unmarked) [4′-Demethyl-4-(4″-aminoanilino)epipodophyllotoxin, reference compound]	I
COc1cc([C@@H]2c3cc4c(cc3[C@@H](Nc3ccc(NC(=O)CCN5C(=O)CC(SC[C@H](N)C(=O)NCCC(=O)N[C@@H](CCCNC(=N)N)C(=O)N[C@@H](CCCNC(=N)N)C(=O)N[C@@H](CCSC)C(=O)N[C@@H](CCCCN)C(=O)N[C@@H](Cc6c[nH]c7ccccc67)C(=O)N[C@@H](CCCCN)C(=O)N[C@@H](CCCCN)C(N)=O)C5=O)cc3)[C@H]3COC(=O)[C@H]23)OCO4)cc(O)c1O (stereo partly drawn) [4′-Demethyl-4-[4″-aminoanilino-(succinimidopropionoyl)-(H-Cys-βAla-Arg-Arg-Met-Lys-Trp-Lys-Lys-NH2)]epipodophyllotoxin] (H-C(X3)[βAla]RRMKWKK-NH2)	I

test system: not listed separately; experiment: Maximum tolerated dose by iv administration in mice; conditions: mouse, in vivo

Compound	MTD [mg/kg]
CC[C@H](C)[C@H](NC(=O)[C@H](CCCCN)NC(=O)[C@@H](NC(=O)[C@H](CCC(N)=O)NC(=O)[C@H](CCCNC(=N)N)NC(=O)[C@@H](N)CSC1CC(=O)N(CCC(=O)O[C@H]2c3cc4c(cc3[C@@H](c3cc(OC)c(OC)c(OC)c3)[C@H]3C(=O)OC[C@@H]32)OCO4)C1=O)[C@@H](C)CC)C(=O)N[C@@H](Cc1c[nH]c2ccccc12)C(=O)N[C@@H](Cc1ccccc1)C(=O)N[C@@H](CCC(N)=O)C(=O)N[C@@H](CC(N)=O)C(=O)N[C@@H](CCCNC(=N)N)C(=O)N[C@@H](CCCNC(=N)N)C(=O)N[C@@H](CCSC)C(=O)N[C@@H](CCCCN)C(=O)N[C@@H](Cc1c[nH]c2ccccc12)C(=O)N[C@@H](CCCCN)C(=O)N[C@@H](CCCCN)C(=O)NCC(=O)N[C@@H](CS)C(=O)NCC(N)=O (some centres unmarked) [podophyllotoxin, 16-mer]	~40

From patent US7101967B2, “Transport vectors” (priority 1998, dated 2006)
